Laboratory results from PMC6199309, “A therapeutic approach to pantothenate kinase associated neurodegeneration” (Nature Communications, 2018).

Experiments:
CDKL2 = target: T1, CDKL2 (Homo sapiens, UniProt Q92772); assay: KINOMEscan; format: binding; details: read-out: %Ctrl @ 10000nM
T1 construct: purchased DiscoverX KINOMEscan

LTK = target: T2, LTK (Homo sapiens, UniProt P29376); assay: KINOMEscan; format: binding; details: read-out: %Ctrl @ 10000nM
T2 construct: purchased DiscoverX KINOMEscan

[1] = PZ-2891 levels in plasma, liver and brain tissue; format: in vivo, mouse; details: 225 ppm PZ-2891 in diet, 4 weeks
Method: Plasma (20 μl) was added to 100 μl acetonitrile containing 0.6 μM warfarin to a final concentration of 0.5 μM. The samples were incubated on ice for 30 min. Samples were spun at 3500×g for 10 min to pellet debris, and the supernatant was transferred to a glass vial. […] Tissue was homogenized in 2 ml of 80% methanol containing 0.1 μM warfarin, and incubated at −80 °C for 4 h. Samples were spun at 3500×g for 10 min to pellet debris, supernatant was transferred to a glass tube and dried down using a Savant SPD1010 Speed-Vac (Thermo Scientific) overnight. Samples were resuspended in 400 μl of 80% acetonitrile to a final concentration of 0.5 μM and transferred to a glass vial.
Samples (5 μl) were injected onto an XSelect® HSS C18, 2.5 μm, 3.0 × 150 mm column (Waters) using a flow rate of 0.25 ml/min. Solvent A was 0.1% formic acid in water, and Solvent B was acetonitrile + 0.1% formic acid. The HPLC program was the following: starting solvent mixture of 50% B, 0–0.5 min isocratic with 50% B; 0.5–1.5 min linear gradient to 95% B; 1.5–20 min isocratic with 95% B; 20–21 min linear gradient to 50% B; 21–25 min isocratic with 50% B. The QTrap 4500 was operated in the positive mode, and the ion source parameters were: ion spray voltage, 5500 V; curtain gas, 30 psi; temperature, 450 °C; collision gas, medium; ion source gas 1, 30 psi; and ion source gas 2, 40 psi. […]
Supplementary Fig. 11. […]. […]

MKNK1 = target: T3, MKNK1 (Homo sapiens, UniProt Q9BUB5); assay: KINOMEscan; format: binding; details: read-out: %Ctrl @ 10000nM
T3 construct: purchased DiscoverX KINOMEscan

WNK4 = target: T4, WNK4 (Homo sapiens, UniProt Q96J92); assay: KINOMEscan; format: binding; details: read-out: %Ctrl @ 10000nM
T4 construct: DNA label for qPCR (T7 phage fusion or DNA tag); purchased DiscoverX scanMAX; host or cells: E. coli BL21-derived (T7 phage) or HEK-293

[2] = target: T5, RSK3(Kin.Dom.1-N-terminal) (Homo sapiens, UniProt Q15349); assay: KINOMEscan; format: binding; details: read-out: %Ctrl @ 10000nM
T5 construct: RSK3(Kin.Dom.1-N-terminal); purchased DiscoverX KINOMEscan

ITK = target: T6, ITK (Homo sapiens, UniProt Q08881); assay: KINOMEscan; format: binding; details: read-out: %Ctrl @ 10000nM
T6 construct: purchased DiscoverX KINOMEscan

NIM1 = target: T7, NIM1 (Homo sapiens, UniProt Q8IY84); assay: KINOMEscan; format: binding; details: read-out: %Ctrl @ 10000nM
T7 construct: purchased DiscoverX KINOMEscan

ADCK4 = target: T8, ADCK4 (Homo sapiens, UniProt Q96D53); assay: KINOMEscan; format: binding; details: read-out: %Ctrl @ 10000nM
T8 construct: purchased DiscoverX KINOMEscan

MRCKA = target: T9, MRCKA (Homo sapiens, UniProt Q5VT25); assay: KINOMEscan; format: binding; details: read-out: %Ctrl @ 10000nM
T9 construct: purchased DiscoverX KINOMEscan

MAPKAPK2 = target: T10, MAPKAPK2 (Homo sapiens, UniProt P49137); assay: KINOMEscan; format: binding; details: read-out: %Ctrl @ 10000nM
T10 construct: purchased DiscoverX KINOMEscan

PRKCH = target: T11, PRKCH (Homo sapiens, UniProt P24723); assay: KINOMEscan; format: binding; details: read-out: %Ctrl @ 10000nM
T11 construct: purchased DiscoverX KINOMEscan

FAK = target: T12, FAK (Homo sapiens, UniProt Q05397); assay: KINOMEscan; format: binding; details: read-out: %Ctrl @ 10000nM
T12 construct: purchased DiscoverX KINOMEscan

RIOK1 = target: T13, RIOK1 (Homo sapiens, UniProt Q9BRS2); assay: KINOMEscan; format: binding; details: read-out: %Ctrl @ 10000nM
T13 construct: purchased DiscoverX KINOMEscan

CDKL1 = target: T14, CDKL1 (Homo sapiens, UniProt Q00532); assay: KINOMEscan; format: binding; details: read-out: %Ctrl @ 10000nM
T14 construct: purchased DiscoverX KINOMEscan

PAK4 = target: T15, PAK4 (Homo sapiens, UniProt O96013); assay: KINOMEscan; format: binding; details: read-out: %Ctrl @ 10000nM
T15 construct: purchased DiscoverX KINOMEscan

MELK = target: T16, MELK (Homo sapiens, UniProt Q14680); assay: KINOMEscan; format: binding; details: read-out: %Ctrl @ 10000nM
T16 construct: purchased DiscoverX KINOMEscan

KIT(L576P) = target: T17, KIT(L576P) (Homo sapiens, UniProt P10721, L576P); assay: KINOMEscan; format: binding; details: read-out: %Ctrl @ 10000nM
T17 construct: purchased DiscoverX KINOMEscan

BIKE = target: T18, BIKE (Homo sapiens, UniProt Q9NSY1); assay: KINOMEscan; format: binding; details: read-out: %Ctrl @ 10000nM
T18 construct: purchased DiscoverX KINOMEscan

FLT3-autoinhibited = target: T19, FLT3-autoinhibited (Homo sapiens, UniProt P36888); assay: KINOMEscan; format: binding; details: read-out: %Ctrl @ 10000nM
T19 construct: purchased DiscoverX KINOMEscan

[3] = target: T20, EGFR(L747-S752del, P753S) (Homo sapiens, UniProt P00533, DEL747-752/P753S); assay: KINOMEscan; format: binding; details: read-out: %Ctrl @ 10000nM
T20 construct: purchased DiscoverX KINOMEscan

MLK2 = target: T21, MLK2 (Homo sapiens, UniProt Q02779); assay: KINOMEscan; format: binding; details: read-out: %Ctrl @ 10000nM
T21 construct: purchased DiscoverX KINOMEscan

RIPK5 = target: T22, RIPK5 (Homo sapiens, UniProt Q6XUX3); assay: KINOMEscan; format: binding; details: read-out: %Ctrl @ 10000nM
T22 construct: purchased DiscoverX KINOMEscan

MAST1 = target: T23, MAST1 (Homo sapiens, UniProt Q9Y2H9); assay: KINOMEscan; format: binding; details: read-out: %Ctrl @ 10000nM
T23 construct: purchased DiscoverX KINOMEscan

PLK1 = target: T24, PLK1 (Homo sapiens, UniProt P53350); assay: KINOMEscan; format: binding; details: read-out: %Ctrl @ 10000nM
T24 construct: purchased DiscoverX KINOMEscan

DMPK2 = target: T25, DMPK2 (Homo sapiens, UniProt Q6DT37); assay: KINOMEscan; format: binding; details: read-out: %Ctrl @ 10000nM
T25 construct: purchased DiscoverX KINOMEscan

ULK1 = target: T26, ULK1 (Homo sapiens, UniProt O75385); assay: KINOMEscan; format: binding; details: read-out: %Ctrl @ 10000nM
T26 construct: DNA label for qPCR (T7 phage fusion or DNA tag); purchased DiscoverX scanMAX; host or cells: E. coli BL21-derived (T7 phage) or HEK-293

NEK2 = target: T27, NEK2 (Homo sapiens, UniProt P51955); assay: KINOMEscan; format: binding; details: read-out: %Ctrl @ 10000nM
T27 construct: purchased DiscoverX KINOMEscan

PCTK2 = target: T28, PCTK2 (Homo sapiens, UniProt Q00537); assay: KINOMEscan; format: binding; details: read-out: %Ctrl @ 10000nM
T28 construct: purchased DiscoverX KINOMEscan

Plasma stability = format: in vitro ADME; details: human, read-out: Plasma Stability T1/2
CSK = target: T29, CSK (Homo sapiens, UniProt P41240); assay: KINOMEscan; format: binding; details: read-out: %Ctrl @ 10000nM
T29 construct: purchased DiscoverX KINOMEscan

DYRK2 = target: T30, DYRK2 (Homo sapiens, UniProt Q92630); assay: KINOMEscan; format: binding; details: read-out: %Ctrl @ 10000nM
T30 construct: purchased DiscoverX KINOMEscan

SBK1 = target: T31, SBK1 (Homo sapiens, UniProt Q52WX2); assay: KINOMEscan; format: binding; details: read-out: %Ctrl @ 10000nM
T31 construct: purchased DiscoverX KINOMEscan
T31 sequence (Q52WX2 whole entry): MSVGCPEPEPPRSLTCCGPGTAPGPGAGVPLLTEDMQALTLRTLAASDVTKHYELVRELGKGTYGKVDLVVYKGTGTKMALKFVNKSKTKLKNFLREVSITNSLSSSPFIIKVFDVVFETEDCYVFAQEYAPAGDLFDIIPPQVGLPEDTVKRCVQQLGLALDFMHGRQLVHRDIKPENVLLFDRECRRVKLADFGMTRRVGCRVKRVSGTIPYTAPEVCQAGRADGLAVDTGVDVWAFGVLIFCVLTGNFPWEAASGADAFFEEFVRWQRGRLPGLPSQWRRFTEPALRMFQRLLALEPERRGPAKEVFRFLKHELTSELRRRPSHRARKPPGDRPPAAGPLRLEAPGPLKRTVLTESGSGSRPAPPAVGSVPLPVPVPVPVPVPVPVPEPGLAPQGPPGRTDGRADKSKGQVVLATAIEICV

T8 sequence (Q96D53 whole entry): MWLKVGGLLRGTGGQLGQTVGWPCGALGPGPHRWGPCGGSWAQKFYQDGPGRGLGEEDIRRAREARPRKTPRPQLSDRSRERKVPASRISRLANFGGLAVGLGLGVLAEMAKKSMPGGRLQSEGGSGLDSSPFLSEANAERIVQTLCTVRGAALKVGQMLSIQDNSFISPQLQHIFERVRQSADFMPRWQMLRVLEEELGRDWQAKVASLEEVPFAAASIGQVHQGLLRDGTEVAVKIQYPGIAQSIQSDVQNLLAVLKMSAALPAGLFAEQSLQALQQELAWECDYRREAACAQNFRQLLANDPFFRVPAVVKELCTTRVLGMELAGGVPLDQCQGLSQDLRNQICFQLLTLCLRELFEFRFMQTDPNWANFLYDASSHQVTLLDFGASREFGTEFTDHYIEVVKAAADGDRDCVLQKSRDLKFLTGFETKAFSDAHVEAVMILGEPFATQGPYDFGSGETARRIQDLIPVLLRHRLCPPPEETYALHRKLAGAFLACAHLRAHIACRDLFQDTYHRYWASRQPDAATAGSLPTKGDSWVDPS
T18 sequence (Q9NSY1 whole entry): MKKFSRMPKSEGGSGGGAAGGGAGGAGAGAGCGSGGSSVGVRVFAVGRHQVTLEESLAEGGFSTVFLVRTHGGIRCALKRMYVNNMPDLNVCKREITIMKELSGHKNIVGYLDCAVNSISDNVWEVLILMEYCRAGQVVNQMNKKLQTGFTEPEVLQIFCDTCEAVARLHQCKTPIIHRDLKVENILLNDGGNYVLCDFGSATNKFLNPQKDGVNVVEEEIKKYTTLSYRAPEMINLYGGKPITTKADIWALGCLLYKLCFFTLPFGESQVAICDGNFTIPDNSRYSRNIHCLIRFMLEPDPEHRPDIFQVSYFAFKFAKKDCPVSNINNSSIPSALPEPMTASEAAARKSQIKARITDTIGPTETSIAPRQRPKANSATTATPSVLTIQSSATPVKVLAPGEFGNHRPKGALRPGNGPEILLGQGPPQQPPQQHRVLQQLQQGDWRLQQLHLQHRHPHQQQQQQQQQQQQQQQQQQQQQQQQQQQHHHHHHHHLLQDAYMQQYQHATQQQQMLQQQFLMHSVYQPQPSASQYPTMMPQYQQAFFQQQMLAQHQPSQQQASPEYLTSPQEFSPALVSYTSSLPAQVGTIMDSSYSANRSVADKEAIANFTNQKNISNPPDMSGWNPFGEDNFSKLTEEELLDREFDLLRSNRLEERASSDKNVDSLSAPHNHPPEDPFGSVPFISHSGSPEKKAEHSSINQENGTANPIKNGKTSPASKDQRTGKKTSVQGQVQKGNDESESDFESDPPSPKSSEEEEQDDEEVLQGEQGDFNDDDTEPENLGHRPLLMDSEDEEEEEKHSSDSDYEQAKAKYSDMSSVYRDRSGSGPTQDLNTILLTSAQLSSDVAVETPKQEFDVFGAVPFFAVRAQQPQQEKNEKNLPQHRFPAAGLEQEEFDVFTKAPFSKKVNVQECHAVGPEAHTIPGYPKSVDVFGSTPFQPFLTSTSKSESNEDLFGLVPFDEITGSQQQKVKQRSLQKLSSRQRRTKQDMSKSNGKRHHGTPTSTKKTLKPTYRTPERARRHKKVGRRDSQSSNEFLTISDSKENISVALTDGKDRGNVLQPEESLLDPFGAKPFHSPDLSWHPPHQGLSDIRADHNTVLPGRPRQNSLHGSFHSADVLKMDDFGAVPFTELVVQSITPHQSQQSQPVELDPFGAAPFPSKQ
T25 sequence (Q6DT37 whole entry): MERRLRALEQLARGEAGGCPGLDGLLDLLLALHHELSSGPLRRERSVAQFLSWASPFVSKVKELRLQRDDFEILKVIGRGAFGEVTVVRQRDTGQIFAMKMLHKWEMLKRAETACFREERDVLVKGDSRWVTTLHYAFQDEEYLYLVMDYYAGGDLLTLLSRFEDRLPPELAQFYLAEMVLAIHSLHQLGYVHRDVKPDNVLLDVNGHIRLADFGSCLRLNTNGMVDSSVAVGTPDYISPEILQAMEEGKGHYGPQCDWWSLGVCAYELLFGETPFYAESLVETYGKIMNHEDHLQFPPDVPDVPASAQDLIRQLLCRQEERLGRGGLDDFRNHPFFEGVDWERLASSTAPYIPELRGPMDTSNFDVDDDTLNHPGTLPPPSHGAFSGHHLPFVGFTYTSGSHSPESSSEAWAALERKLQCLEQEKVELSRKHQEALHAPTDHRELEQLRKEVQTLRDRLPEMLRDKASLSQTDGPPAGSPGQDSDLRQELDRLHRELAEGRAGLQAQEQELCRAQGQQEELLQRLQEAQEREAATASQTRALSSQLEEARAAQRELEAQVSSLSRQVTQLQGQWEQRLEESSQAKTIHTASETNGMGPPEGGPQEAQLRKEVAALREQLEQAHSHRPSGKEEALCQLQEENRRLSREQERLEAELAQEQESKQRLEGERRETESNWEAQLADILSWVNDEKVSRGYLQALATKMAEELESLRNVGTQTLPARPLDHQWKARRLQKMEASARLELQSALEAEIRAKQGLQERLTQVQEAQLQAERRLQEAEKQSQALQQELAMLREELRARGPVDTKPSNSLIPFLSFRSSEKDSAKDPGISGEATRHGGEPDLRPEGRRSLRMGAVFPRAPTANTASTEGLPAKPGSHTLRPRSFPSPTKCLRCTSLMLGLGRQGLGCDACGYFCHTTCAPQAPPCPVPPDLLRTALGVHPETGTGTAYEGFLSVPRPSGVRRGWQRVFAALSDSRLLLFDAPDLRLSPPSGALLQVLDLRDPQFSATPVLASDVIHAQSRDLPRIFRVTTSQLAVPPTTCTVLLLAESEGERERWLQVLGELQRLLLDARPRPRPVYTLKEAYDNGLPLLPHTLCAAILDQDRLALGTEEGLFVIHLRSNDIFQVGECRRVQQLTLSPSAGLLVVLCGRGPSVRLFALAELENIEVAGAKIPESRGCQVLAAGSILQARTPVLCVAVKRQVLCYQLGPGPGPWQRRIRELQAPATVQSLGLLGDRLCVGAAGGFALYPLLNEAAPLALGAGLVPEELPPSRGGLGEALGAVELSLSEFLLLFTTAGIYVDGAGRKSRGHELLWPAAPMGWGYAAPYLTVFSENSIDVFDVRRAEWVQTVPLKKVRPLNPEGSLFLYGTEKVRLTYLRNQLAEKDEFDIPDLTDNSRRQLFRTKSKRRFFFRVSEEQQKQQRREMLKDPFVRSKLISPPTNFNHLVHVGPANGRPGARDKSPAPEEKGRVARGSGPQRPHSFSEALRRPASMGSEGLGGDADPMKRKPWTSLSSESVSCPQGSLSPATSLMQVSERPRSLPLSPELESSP
T1 sequence (Q92772 whole entry): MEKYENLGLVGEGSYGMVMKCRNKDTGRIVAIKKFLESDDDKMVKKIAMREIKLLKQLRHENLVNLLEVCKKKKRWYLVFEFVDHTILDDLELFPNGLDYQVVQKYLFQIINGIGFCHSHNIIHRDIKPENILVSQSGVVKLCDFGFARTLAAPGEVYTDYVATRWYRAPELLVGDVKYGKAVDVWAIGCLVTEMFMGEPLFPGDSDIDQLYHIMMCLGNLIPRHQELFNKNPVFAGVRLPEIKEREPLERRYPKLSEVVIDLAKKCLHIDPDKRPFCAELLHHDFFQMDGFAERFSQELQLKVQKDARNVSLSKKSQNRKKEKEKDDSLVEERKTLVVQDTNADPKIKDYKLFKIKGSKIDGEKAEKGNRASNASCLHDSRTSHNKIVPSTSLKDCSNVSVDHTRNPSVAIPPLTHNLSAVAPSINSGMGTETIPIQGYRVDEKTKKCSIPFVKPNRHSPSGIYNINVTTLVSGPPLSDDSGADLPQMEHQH
T15 sequence (O96013 whole entry): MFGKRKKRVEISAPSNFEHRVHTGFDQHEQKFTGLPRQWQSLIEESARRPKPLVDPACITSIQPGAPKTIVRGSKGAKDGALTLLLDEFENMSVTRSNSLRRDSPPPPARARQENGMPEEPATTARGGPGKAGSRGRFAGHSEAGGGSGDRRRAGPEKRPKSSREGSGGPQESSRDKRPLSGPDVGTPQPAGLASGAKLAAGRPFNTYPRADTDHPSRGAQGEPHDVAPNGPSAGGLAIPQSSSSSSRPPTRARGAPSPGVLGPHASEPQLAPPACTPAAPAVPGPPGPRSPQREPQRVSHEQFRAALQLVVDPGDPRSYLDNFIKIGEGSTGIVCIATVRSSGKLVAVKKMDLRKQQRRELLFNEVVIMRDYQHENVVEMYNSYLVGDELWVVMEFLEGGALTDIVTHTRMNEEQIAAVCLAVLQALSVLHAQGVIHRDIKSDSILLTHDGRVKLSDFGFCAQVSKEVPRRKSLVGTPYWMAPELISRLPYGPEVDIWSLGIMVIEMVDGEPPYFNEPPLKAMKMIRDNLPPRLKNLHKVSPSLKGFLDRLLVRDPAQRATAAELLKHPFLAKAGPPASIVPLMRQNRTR

## CC(C)c1ccc(CC(=O)N2CCN(c3ccc(C#N)nn3)CC2)cc1 [PZ-2891, 6-(4-(2-(4-isopropylphenyl)acetyl)piperazin-1-yl)pyridazine-3-carbonitrile]
CDKL2
  remaining binding at 10 µM: 90%
LTK
  remaining binding at 10 µM: 75%
[1]
  PZ-2891 levels in tissues: presence of drug in liver and brain
MKNK1
  remaining binding at 10 µM: 97%
WNK4
  remaining binding at 10 µM: 69%
[2]
  remaining binding at 10 µM: 72%
ITK
  remaining binding at 10 µM: 89%
NIM1
  remaining binding at 10 µM: 83%
ADCK4
  remaining binding at 10 µM: 92%
MRCKA
  remaining binding at 10 µM: 92%
MAPKAPK2
  remaining binding at 10 µM: 88%
PRKCH
  remaining binding at 10 µM: 92%
FAK
  remaining binding at 10 µM: 89%
RIOK1
  remaining binding at 10 µM: 100%
CDKL1
  remaining binding at 10 µM: 74%
PAK4
  remaining binding at 10 µM: 92%
MELK
  remaining binding at 10 µM: 75%
KIT(L576P)
  remaining binding at 10 µM: 88%
BIKE
  remaining binding at 10 µM: 100%
FLT3-autoinhibited
  remaining binding at 10 µM: 82%
[3]
  remaining binding at 10 µM: 100%
MLK2
  remaining binding at 10 µM: 72%
RIPK5
  remaining binding at 10 µM: 77%
MAST1
  remaining binding at 10 µM: 61%
PLK1
  remaining binding at 10 µM: 85%
DMPK2
  remaining binding at 10 µM: 93%
ULK1
  remaining binding at 10 µM: 82%
NEK2
  remaining binding at 10 µM: 88%
PCTK2
  remaining binding at 10 µM: 95%
Plasma stability
  half-life: > 50 h
CSK
  remaining binding at 10 µM: 97%
DYRK2
  remaining binding at 10 µM: 97%
SBK1
  remaining binding at 10 µM: 62%
